How the values were obtained:
[1] = tested on: excised wheat leaf tips; assay: Antisenescence test, retention of chlorophyll in excised wheat leaf tips; parameters: species or system Triticum aestivum cv. Hereward; settings: for activity (%) [10^−4 mol · l^−1 BAP = 100%]: retention of chlorophyll in excised wheat leaf tips at the concentration with highest activity, 10 replicate determinations; for concentration with highest activity: retention of chlorophyll in excised wheat leaf tips, tested range 10^−8 M to 10^−4 M, 96 h in the dark at 25° C.
Procedure: Testing of antisenescence properties of novel cytokinin compounds on wheat leaf segments. Seeds of winter wheat, Triticum aestivum cv. Hereward, were washed under running water for 24 hours and then sown on vermiculite soaked with the Knop's solution. They were placed in the grow chamber at 25° C. with a 16 h-8 h light period at 50 mmol.m^−2.s^−1. After 7 days, the first leaf was fully developed and the second leaf had started to grow. A 35 mm long tip section of the first leaf, was removed from each of 5 seedlings and trimmed slightly to a combined weight of 100 mg. The basal ends of the five leaf tips were placed in the wells of a microtiter polystyrene plate containing […] of the solution of the tested compound each. The entire plate was inserted into a plastic box lined with paper tissues soaked with distilled water to prevent leaf sections from drying out. After 96 h incubation in the dark at 25° C., the leaves were removed and chlorophyll was extracted by heating at 80° C. for 10 min in 5 ml of 80% ethanol (v/v). The sample volume was then restored to 5 ml by the addition of 80% ethanol (v/v). The absorbance of the extract was recorded at 665 nm. In addition, chlorophyll extracts from fresh leaves and leaf tips incubated in deionized water were measured. […] Relative activity of the compound at this concentration was calculated (Table 7). The activity obtained for 10^−4 M 6-benzylaminopurine (BAP) was defined as 100%. The values shown are means of five replicates and the whole experiment was repeated twice.
(§1) The compounds to be tested were dissolved in dimethylsulfoxide (DMSO) and the solution brought up to 10^−3 M with distilled water.

[2] = tested on: human diploid fibroblasts (HCA cells, HCA20, HCA40, HCA60); assay: Senescent cells (β-galactosidase staining) in culture of human fibroblasts; type: cell-based; settings: for SENESCENT CELLS (%) HCA20: human fibroblasts passage 20 (HCA20); for SENESCENT CELLS (%) HCA40: human fibroblasts passage 40 (HCA40); for SENESCENT CELLS (%) HCA60: human fibroblasts passage 60 (HCA60)
Procedure: In this example, human diploid fibroblasts (HCA cells of various passage levels: passage 20—designated HCA20; passage 40—designated HCA40; passage 60—designated HCA60) were stained for β-galactosidase activity. The medium used for the cell cultivation was removed, the cells were washed twice in […], and fixed in 2-3 ml of fixing solution comprised of a 2% formaldehyde and 0.2% glutaraldehyde in PBS. The cells were incubated at room temperature for 5 minutes, and then washed twice with PBS. The cells were subsequently incubated at 37° C.

[3] = tested on: Amaranthus caudatus cotyledon/hypocotyl explants; assay: Amaranthus bioassay (betacyanin content); parameters: species or system Amaranthus caudatus var. atropurpurea; settings: for concentration with highest activity: betacyanin content after 48 h incubation, tested 10^−8 M to 10^−4 M; for Activity (%) [10^−5 mol · l^−1 BAP = 100%]: betacyanin content at the concentration with highest activity, 10^−5 M BAP = 100%
Procedure: Testing of novel compounds for typical cytokinin activity in Amaranthus bioassay. A standard Amaranthus bioassay was performed with several modifications. The seeds of Amaranthus caudatus var. atropurpurea were surface-sterilized in 10% (w/v) N-chlorobenzenesulfonamide for 10 min and washed 5 times with deionized water. They were placed in 14 cm Petri dishes containing paper tissues saturated with deionized water. After 72 h of cultivation at 25° C. in darkness, the roots of the seedlings were cut off. The explants, consisting of two cotyledons and hypocotyls, were placed in 5 cm Petri dishes onto two layers of filter paper soaked with 1 ml of the incubation medium containing 10 mmol of NA2HPO4—KH2PO4, pH 6.8, 5 mmol of tyrosine and the compound to be tested. There were 20 explants per dish. The procedure was carried out under a green safe light in a darkroom. […] The concentration of betacyanin was determined from the absorbencies at 537 nm and 620 nm as follows: DA=A537 nm−A620 nm. […] Relative activity of the compound at this concentration was calculated. The activity obtained for 10^−5 M 6-benzylaminopurine (BAP) was defined as 100%.
as §1

[4] = tested on: cytokinin-dependent tobacco callus Nicotiana tabacum L. cv. Wisconsin 38; assay: Cytokinin activity in tobacco callus bioassay; type: cell-based; settings: for concentration with highest activity: growth of tobacco callus, four weeks of cultivation, tested 10^−8 M to 10^−4 M; for Activity (%) [10^−5 mol · l^−1 BAP = 100%]: increase of fresh callus weight at the concentration with highest activity, 10^−5 M BAP = 100%
Procedure: Estimation of cytokinin biological activity of novel compounds in callus bioassay. Cytokinin-dependent tobacco callus Nicotiana tabacum L. cv. […] Subcultivation was carried out every three weeks. Fourteen days before the bioassay, the callus tissue was transferred to the media without the compound tested. The biological activity was determined from the increase of the fresh callus weight after four weeks of cultivation. Five replicates were prepared for each concentration of the compound tested and the entire test was repeated twice. […] The relative activity of the compound at this concentration was calculated (Table 8). […] The compounds to be tested were dissolved in dimethylsulfoxide (DMSO) and the solution brought up to 10^−3 M with distilled water. This stock solution was further diluted with the respective media used for the biotest to a concentration ranging from 10^−8 M to 10^−4 M.

| Structure (SMILES) | activity (%) [10^−4 mol · l^−1 BAP = 100%] [1] [%] | concentration with highest activity [1] | SENESCENT CELLS (%) HCA20 [2] [%] | SENESCENT CELLS (%) HCA40 [2] [%] | SENESCENT CELLS (%) HCA60 [2] [%] | concentration with highest activity [3] | Activity (%) [10^−5 mol · l^−1 BAP = 100%] [3] [%] | concentration with highest activity [4] | Activity (%) [10^−5 mol · l^−1 BAP = 100%] [4] [%] |
| --- | --- | --- | --- | --- | --- | --- | --- | --- | --- |
| Oc1cccc(Nc2ncnc3c2ncn3C2CCCCO2)c1 (stereo not drawn) [3-hydroxyanilino / tetrahydropyran-2-yl] | 23 | 10^−4 mol · l^−1 | 5 | 4 | 28 | 10^−4 mol · l^−1 | 122 | 10^−5 mol · l^−1 | 65 |
| Oc1ccccc1CNc1ncnc2c1ncn2C1CCCO1 (stereo not drawn) [6-(2-hydroxybenzylamino)-9-(tetrahydrofuran-2-yl)-purine] | 26 | 10^−4 mol · l^−1 | 4 | 2 | 26 | 10^−4 mol · l^−1 | 33 | 10^−5 mol · l^−1 | 78 |
| CC(CO)CCNc1ncnc2c1ncn2C1CCCO1 (stereo not drawn) | 91 | 10^−4 mol · l^−1 | 5 | 2 | 25 | 10^−4 mol · l^−1 | 80 | 10^−5 mol · l^−1 | 105 |
| Oc1ccccc1CNc1ncnc2c1ncn2C1CCCCO1 (stereo not drawn) [6-(2-hydroxybenzylamino)-9-(tetrahydropyran-2-yl)purine] | 23.6 | 10^−4 mol · l^−1 | 4 | 2 | 26 | 10^−4 mol · l^−1 | 41.6 | 10^−5 mol · l^−1 | 80 |
| Oc1ccoc1CNc1ncnc2c1ncn2C1CCCCO1 (stereo not drawn) | 45 | 10^−4 mol · l^−1 | 4 | 4 | 18 | 10^−4 mol · l^−1 | 65 | 10^−6 mol · l^−1 | 52 |
| COc1ccc(CNc2ncnc3c2ncn3C2CCCCO2)c(O)c1 (stereo not drawn) | 35 | 10^−4 mol · l^−1 | 3 | 4 | 27 | 10^−4 mol · l^−1 | 37 | 10^−6 mol · l^−1 | 43 |
| Oc1cccc(CNc2ncnc3c2ncn3C2CCCO2)c1 (stereo not drawn) [6-(3-hydroxybenzylamino)-9-(tetrahydrofuran-2-yl)-purine] | 113 | 10^−4 mol · l^−1 | 5 | 3 | 25 | 10^−4 mol · l^−1 | 107 | 10^−5 mol · l^−1 | 125 |
